Common to all, as to type: functional
The subject of one assay is CHO-K1. Put plainly: Counterscreen for antagonists of the orexin 1 receptor (OX1R; HCRTR1): Homogeneous time resolved fluorescence (HTRF)-based cell-based dose response assay to identify antagonists of the parental CHO-K1 cell line. [Related pubchem assays (depositor defined):AID434989, AID435008, AID463079, AID485270, AID492963, AID492964, AID492965, AID493232, AID504699, AID504701]. As to conditions: Cricetulus griseus. For orientation: Counterscreens check selectivity or assay interference.

For assay [1], the target named is T1, Orexin/Hypocretin receptor type 1 (Homo sapiens, UniProt O43613).
T1 sequence (O43613 whole entry): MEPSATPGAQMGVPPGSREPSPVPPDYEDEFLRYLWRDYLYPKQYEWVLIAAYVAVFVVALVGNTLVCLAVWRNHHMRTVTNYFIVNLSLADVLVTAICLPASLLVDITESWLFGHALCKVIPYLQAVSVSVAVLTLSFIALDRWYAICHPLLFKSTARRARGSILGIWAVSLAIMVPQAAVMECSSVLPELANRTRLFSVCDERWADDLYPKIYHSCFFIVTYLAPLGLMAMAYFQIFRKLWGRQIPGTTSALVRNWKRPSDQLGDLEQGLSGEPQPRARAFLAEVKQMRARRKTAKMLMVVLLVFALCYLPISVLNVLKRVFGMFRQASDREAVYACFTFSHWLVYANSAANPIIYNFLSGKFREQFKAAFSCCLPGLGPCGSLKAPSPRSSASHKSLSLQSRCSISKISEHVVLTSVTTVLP
Put plainly: Homogeneous Time Resolved Fluorescence (HTRF)-based cell-based high throughput dose response assay for antagonists of the orexin 1 receptor (OX1R; HCRTR1). [Related pubchem assays (depositor defined):AID434989, AID435008, AID463079, AID485270, AID492963, AID492964, AID492965, AID493232, AID504717, AID504718].

Assay [2] deals with T1, Orexin/Hypocretin receptor type 1. Nature of the assay: Fluorescence-based cell-based high throughput dose response assay for antagonists of the orexin 1 receptor (OX1R; HCRTR1). [Related pubchem assays (depositor defined):AID434989, AID435008, AID463079, AID485270, AID492963, AID492964, AID492965, AID493232, AID504717, AID504718].
A short description of assay [3]: Counterscreen for antagonists of the orexin 1 receptor (OX1R; HCRTR1): Fluorescence-based cell-based high throughput dose response assay to identify antagonists of the parental CHO cell line. [Related pubchem assays (depositor defined):AID434989, AID435008, AID463079, AID485270, AID492963, AID492964, AID492965, AID493232, AID504699, AID504701].
The target in assay [4] is T2, Orexin receptor type 2 (Homo sapiens, UniProt O43614).
T2 sequence (O43614 whole entry): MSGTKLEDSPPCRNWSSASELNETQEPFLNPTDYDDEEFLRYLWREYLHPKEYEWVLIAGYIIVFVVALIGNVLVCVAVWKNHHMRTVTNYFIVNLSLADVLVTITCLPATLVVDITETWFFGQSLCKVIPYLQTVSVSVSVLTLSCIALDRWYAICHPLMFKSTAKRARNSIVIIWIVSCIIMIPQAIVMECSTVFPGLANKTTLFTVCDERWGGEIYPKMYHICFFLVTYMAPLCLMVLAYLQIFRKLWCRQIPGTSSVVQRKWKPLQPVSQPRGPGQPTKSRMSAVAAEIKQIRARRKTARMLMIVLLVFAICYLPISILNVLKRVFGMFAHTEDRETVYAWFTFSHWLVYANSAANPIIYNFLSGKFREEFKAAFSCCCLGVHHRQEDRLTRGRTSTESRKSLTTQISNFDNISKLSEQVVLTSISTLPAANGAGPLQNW
Nature of the assay: Counterscreen assay for antagonists of the orexin 1 receptor (OX1R; HCRTR1): Homogeneous Time Resolved Fluorescence (HTRF)-based cell-based dose response assay for antagonists of the orexin 2 receptor (OX2R; HCRTR2), run by assay provider.

In assay [5] the target is T2, Orexin receptor type 2. Put plainly: Counterscreen assay for antagonists of the orexin 1 receptor (OX1R; HCRTR1): Fluorescence-based cell-based dose response assay for antagonists of the orexin 2 receptor (OX2R; HCRTR2), run by assay provider.
The target of the next assay is T3, Caspase-3 (Homo sapiens, UniProt P42574).
T3 sequence (P42574 whole entry): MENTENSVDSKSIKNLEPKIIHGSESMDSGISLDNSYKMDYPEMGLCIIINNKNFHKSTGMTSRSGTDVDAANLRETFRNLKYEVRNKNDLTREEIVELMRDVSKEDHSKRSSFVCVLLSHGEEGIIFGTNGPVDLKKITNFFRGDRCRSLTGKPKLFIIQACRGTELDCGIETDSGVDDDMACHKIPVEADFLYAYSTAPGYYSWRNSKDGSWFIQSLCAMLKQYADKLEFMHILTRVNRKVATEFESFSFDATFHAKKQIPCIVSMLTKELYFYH
Put plainly: inhibition of recombinant caspase-3 activity – biochemical, luminescence, set 2, selectivity assay for SENP protease inhibitor project, SAR follow-up (AID 588599).

Assay [6] addresses T4, Sentrin-specific protease 7 (Homo sapiens, UniProt Q9BQF6).
T4 sequence (Q9BQF6 whole entry): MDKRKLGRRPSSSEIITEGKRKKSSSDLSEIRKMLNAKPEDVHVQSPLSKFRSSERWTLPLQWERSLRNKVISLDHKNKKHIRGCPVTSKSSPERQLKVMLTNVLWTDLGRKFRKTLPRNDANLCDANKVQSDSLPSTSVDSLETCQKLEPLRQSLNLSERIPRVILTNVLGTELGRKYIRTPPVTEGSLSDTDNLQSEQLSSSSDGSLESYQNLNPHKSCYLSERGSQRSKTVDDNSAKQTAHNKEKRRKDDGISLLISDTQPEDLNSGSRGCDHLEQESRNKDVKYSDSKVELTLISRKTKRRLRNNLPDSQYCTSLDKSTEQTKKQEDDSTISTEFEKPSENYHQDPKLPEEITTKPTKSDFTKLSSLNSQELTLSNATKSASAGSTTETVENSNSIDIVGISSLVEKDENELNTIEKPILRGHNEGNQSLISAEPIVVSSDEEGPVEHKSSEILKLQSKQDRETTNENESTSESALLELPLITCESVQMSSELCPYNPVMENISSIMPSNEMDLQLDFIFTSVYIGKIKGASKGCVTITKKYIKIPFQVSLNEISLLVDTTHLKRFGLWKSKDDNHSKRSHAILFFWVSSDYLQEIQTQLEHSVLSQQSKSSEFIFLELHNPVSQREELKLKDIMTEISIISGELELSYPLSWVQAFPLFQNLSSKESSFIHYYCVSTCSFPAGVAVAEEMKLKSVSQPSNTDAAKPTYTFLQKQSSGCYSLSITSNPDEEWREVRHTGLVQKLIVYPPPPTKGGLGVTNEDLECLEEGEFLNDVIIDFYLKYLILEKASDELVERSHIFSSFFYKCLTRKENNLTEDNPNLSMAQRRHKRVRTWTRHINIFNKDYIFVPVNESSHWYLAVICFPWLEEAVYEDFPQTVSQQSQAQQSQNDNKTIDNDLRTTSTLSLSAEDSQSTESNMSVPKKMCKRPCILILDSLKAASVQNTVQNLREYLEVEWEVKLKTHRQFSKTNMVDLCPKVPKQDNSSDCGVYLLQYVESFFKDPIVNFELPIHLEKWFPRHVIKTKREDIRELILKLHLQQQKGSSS
Put plainly: inhibition of human SENP7 cleavage activity – biochemical, luminescence, set 2, SAR follow-up (AID 588600).

Assay [7] has as its target T5, Sentrin-specific protease 6 (Homo sapiens, UniProt Q9GZR1).
T5 sequence (Q9GZR1 whole entry): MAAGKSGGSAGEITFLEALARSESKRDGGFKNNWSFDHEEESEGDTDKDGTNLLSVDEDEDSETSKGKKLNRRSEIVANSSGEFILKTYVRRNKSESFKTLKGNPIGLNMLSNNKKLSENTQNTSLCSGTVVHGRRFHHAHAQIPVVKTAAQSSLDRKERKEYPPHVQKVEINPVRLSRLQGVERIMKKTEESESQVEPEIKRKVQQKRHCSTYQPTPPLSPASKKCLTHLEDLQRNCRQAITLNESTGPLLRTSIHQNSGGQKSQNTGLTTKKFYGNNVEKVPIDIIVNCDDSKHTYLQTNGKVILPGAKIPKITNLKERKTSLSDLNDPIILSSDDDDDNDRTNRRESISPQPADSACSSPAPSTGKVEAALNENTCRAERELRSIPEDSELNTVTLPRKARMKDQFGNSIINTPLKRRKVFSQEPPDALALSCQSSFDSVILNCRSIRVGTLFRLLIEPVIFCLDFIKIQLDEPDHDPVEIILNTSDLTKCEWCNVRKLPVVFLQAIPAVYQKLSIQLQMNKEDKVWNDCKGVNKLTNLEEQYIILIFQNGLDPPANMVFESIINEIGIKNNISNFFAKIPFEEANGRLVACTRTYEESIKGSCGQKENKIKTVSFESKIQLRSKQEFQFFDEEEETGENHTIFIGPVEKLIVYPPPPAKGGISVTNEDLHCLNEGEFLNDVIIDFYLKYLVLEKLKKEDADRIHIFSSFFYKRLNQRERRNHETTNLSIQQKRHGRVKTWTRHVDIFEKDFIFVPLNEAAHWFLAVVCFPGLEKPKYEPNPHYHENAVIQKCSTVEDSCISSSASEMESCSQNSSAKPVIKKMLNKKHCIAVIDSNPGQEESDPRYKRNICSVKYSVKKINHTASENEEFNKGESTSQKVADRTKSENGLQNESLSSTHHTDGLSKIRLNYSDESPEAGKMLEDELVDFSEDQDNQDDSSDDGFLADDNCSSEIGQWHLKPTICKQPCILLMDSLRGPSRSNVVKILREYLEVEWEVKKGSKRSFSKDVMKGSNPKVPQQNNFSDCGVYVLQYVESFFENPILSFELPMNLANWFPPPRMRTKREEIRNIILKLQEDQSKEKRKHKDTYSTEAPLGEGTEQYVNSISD
Nature of the assay: inhibition of human SENP6 catalytic domain – biochemical, luminescence, set 2, SAR follow-up (AID 588598).

Assay [8] addresses T6, Sentrin-specific protease 8 (Homo sapiens, UniProt Q96LD8).
T6 sequence (Q96LD8 whole entry): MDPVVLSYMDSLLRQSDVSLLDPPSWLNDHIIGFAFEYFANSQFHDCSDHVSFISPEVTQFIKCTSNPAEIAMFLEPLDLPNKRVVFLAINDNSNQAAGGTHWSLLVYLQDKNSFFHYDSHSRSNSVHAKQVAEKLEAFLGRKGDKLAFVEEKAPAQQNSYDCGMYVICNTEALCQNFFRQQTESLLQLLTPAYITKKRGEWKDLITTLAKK
Put plainly: inhibition of sentrin protease 8 – biochemical, luminescence, set 2, SAR follow-up (AID 588601).

Molecules are shown by their SMILES. The source made the active and inactive calls.

This passage reports IC50 results from ChEMBL document CHEMBL1201862, “PubChem BioAssay data set” (2004).

As to `CCSC1=C(C#N)C(c2ccccc2Cl)C(C(=O)c2cccs2)C(O)(C(F)(F)F)N1` (stereo unspecified), the IC50 (as a rule, the concentration at which inhibition is half-maximal) with CHO-K1 is > 66.2 µM (inactive); in assay [1], 0.174 µM (active); in assay [2], 0.878 µM (active); in [3], 33.9 µM (inactive); on Orexin receptor type 2 [4], > 50 µM (inactive); at Orexin receptor type 2 [5], 20 µM (inactive).

Consider `CCOC(=O)C1=C(COC(=O)/C=C/c2cccc(OC)c2)NC(=O)NC1C` (stereo unspecified), for which the IC50 in the assay on CHO-K1 was > 66.2 µM (inactive); in assay [1] it was 8.33 µM (active); in assay [2], 15.3 µM (inactive); in assay [3] it was > 49.8 µM (inactive); at Orexin receptor type 2 [4] it was > 50 µM (inactive); at Orexin receptor type 2 [5], > 88.8 µM (inactive).

Regarding `CN(C(=O)C(=O)c1c[nH]c2ccccc12)C1CCCCC1`, the IC50 (at Caspase-3; in assay [6]; in [7]; in [8]) was > 99 µM (inactive) throughout.
